What was measured:
colectomy patients = settings: more than 500 colectomy patients, two randomized clinical trials; cited from earlier work
[1] = Plasma levels after oral administration; assay type: in vivo
Protocol: Methylnaltrexone is rapidly absorbed after oral administration from the stomach and bowel. Initial plasma levels of the drug are seen within 5-10 minutes of the administration of non-enteric coated compound.

[2] = tested on: subjects with advanced medical illness and opioid-induced constipation; assay: Study 2: double-blind, randomized, placebo-controlled study of subcutaneous MNTX (fixed dose); assay type: in vivo, human
Protocol: (§1) A double-blind, randomized, placebo-controlled study of subcutaneous MNTX was conducted in subjects with advanced medical illness and a current history of opioid-induced constipation. To satisfy eligibility criteria for enrollment, subjects were required to be on stable doses of laxatives and opioid analgesics. In the context of the study, a stable dose of opioid analgesics was defined as no reduction in the dose of opioid analgesic of ≥50% for at least three days before the first dose of MNTX. A stable dose of laxatives was defined as having a standing laxative order (and not PRN, or as-needed) for at least three days before the first dose of MNTX. A diagnosis of constipation was provided if the subject had (a) fewer than 3 bowel movements during the previous week by history and no clinically notable laxation in the 24 hours before the first dose of MNTX, or (b) no clinical notable laxation in the 48 hours before the first dose of MNTX.
Eligible subjects were randomized to receive MNTX or placebo every other day during a 14-day, double-blind period. Subjects weighing 38 kg to <62 kg received 0.4 mL SC MNTX (8 mg) or equal volume of placebo. Subjects weighing ≥62 kg received 0.6 mL SC MNTX (12 mg) or equal volume of placebo. Injections were administered subcutaneously in either the shoulder area, buttocks, abdomen, thighs or extremities, and rescue-laxatives, enemas or manual disimpactions were not administered within 4 hours before or after each dose of test article.
The endpoint assessed was the proportion of subjects with rescue-free laxation response within 4 hours after at least two of the first four doses. Two hundred and twenty-nine (229) subjects were enrolled and evaluated, including 151 patients with advanced cancers and 78 patients with other advanced illness (e.g., cardiovascular, pulmonary or neurologic disorders). Of which 229 subjects which enrolled, 113 were randomized to the placebo group and 116 were randomized to the MNTX treatment group. Of the patients who completed the double-blind phase, 142 (placebo 69, MNTX 73) elected to proceed with a 10-week open label phase of subcutaneous MNTX at PRN dosing.

[3] = tested on: subjects with advanced medical illness and opioid-induced constipation; assay: Study 1: double-blind, randomized, placebo-controlled study of subcutaneous methylnaltrexone; assay type: in vivo, human
Protocol: as §1, with “subcutaneous methylnaltrexone (MNTX)” for “subcutaneous MNTX”, “had” for “had (a)”, “or” for “or (b)”
Eligible subjects were randomized to one of two treatment groups: MNTX 0.15 mg/kg (e.g., 8 mg for patients <62 kg body weight and 12 mg for patients ≥62 kg body weight) or placebo. Each treatment was administered every other day (QOD) subcutaneously for two weeks. Injections were administered subcutaneously in either the shoulder area, buttocks, abdomen, thighs or extremities. Rescue-laxatives, enemas or manual disimpactions were not administered within 4 hours before or after each dose of MNTX. Endpoints included: (1) the proportion of subjects with rescue-free laxation within 4 hours of the first dose of study drug, and (2) the proportion of subjects with ≥2 rescue-free laxations within 4 hours post dosing over 4 doses of study drug (the first week of the two-week treatment period). One hundred and thirty-four (134) subjects were enrolled and evaluated, including 78 patients with advanced cancers and 56 patients with other advanced illness, including COPD, cardiovascular disease and severe neurologic disease. Seventy-one (71) of the 134 subjects were randomized to the placebo group, and sixty-two (62) of the 134 subjects were randomized to MNTX treatment group. The co-primary efficacy endpoints of this study were: 1) the proportion of patients with laxation within 4 hours after the first dose of study drug, and 2) the proportion of patients with laxation within 4 hours after 2 of the first 4 doses (the first week of double-blind treatment). The primary endpoint was laxation within 4 hours. Secondary endpoints included the use of rescue medication and frequency of symptoms within 24 hours. […]

[4] = MNTX 0.15 mg/kg SC QOD, double-blind
[5] = regardless of the time after dose

C[N@+]1(CC2CC2)CC[C@]23c4c5ccc(O)c4O[C@H]2C(=O)CC[C@@]3(O)[C@H]1C5.[Br-] [MNTX, (R)—N-(cyclopropylmethyl) noroxymorphone methobromide]
safety and perioperative analgesia (colectomy patients): safely given | plasma levels with an enteric coating which prevents gastric absorption ([1]; enteric coated, oral): lower plasma levels | time to initial plasma levels after oral administration ([1]; non-enteric coated compound): 5 to 10 min | subjects with rescue-free laxation response within 4 hours after at least 2 of the first 4 doses ([2]; ITT population, first week, 8 or 12 mg SC QOD): 62.9% | number of rescue-free laxations within 24 hour post dosing per week ([2]; Week 1): 4.9 | number of total laxations within 24 hour post dosing per week ([2]; Week 1): 4.9 | number of rescue-free laxations within 24 hour post dosing per week ([2]; Week 2): 3.2 | number of total laxations within 24 hour post dosing per week ([2]; Week 2): 3.2 | improvement in the stool symptoms domain of the PAC-SYM ([2]; compared with the placebo group, p=0.0920): more pronounced | subjects who used enemas ([2]; double-blind period): 17% | subjects who used rescue laxatives ([2]; double-blind period): 27% | subjects who required manual disimpaction ([2]; double-blind period, either group): < 5% | opioid use ([2]; effect of MNTX administration): not affected | efficacy versus placebo for the primary and all secondary efficacy endpoints ([2]; fixed doses 8 mg or 12 mg SC QOD): statistically superior to placebo | median time to first rescue-free laxation after the first dose ([2]; in vivo): 0.8 h | subjects with rescue-free laxation within 4 hours after at least 4 of the maximum 7 doses ([2]; in vivo): 62.2% | subjects with rescue-free laxation within 4 hours of the first dose ([2]; in vivo): 69.8% | subjects with improvement in constipation distress ([3]; Day 1): 53% | subjects for whom the bowel status was improved (second global rating, 'Likewise') ([3]; Day 7): 69.4% | subjects who rated their bowel status improved (global rating scale) ([3]; Day 7): 73.5% | subjects with improvement in constipation distress ([3]; Day 7): 64% | subjects for whom the bowel status was improved (second global rating, 'Likewise') ([3]; Day 14): 67.9% | subjects who rated their bowel status improved (global rating scale) ([3]; Day 14): 67.9% | subjects with improvement in constipation distress ([3]; Day 14): 60% | subjects with rescue-free laxation within 4 hours after at least 2 of the first 4 doses ([3]; MNTX 0.15 mg/kg SC QOD): 51.6% | subjects with rescue-free laxation within 4 hours after at least 2 of the first 4 doses (number) ([3]; MNTX 0.15 mg/kg SC QOD): Thirty-two | subjects with rescue-free laxation within 4 hours after at least 4 of the maximum 7 doses ([3]; MNTX 0.15 mg/kg SC QOD): 38.7% | subjects with rescue-free laxation within 4 hours after at least 4 of the maximum 7 doses (number) ([3]; MNTX 0.15 mg/kg SC QOD): twenty-four | subjects with rescue-free laxation within 4 hours after the first dose [3, 4]: 48.4% | subjects with rescue-free laxation within 4 hours after the first dose (number) [3, 4]: 30 subjects | median time to rescue-free laxation after the first dose ([3]; based on the subjects who had laxation): 1.0 h | subjects using enemas ([3]; during double-blind treatment (baseline 12.7%)): 23.8% | subjects using osmotic agents ([3]; during the study (baseline 30.2%)): 33.3% | subjects with at least one rescue-free laxation ([3]; first week of treatment): 95.2% | rescue-free laxations within 4 hours after any dose rated as moderate, considerable, or great difficulty ([3]; in vivo): 33.0% | subjects with rescue-free laxations within 4 hours after any individual dose ([3]; range over doses): 37.3-48.4% | subjects with rescue-free laxations within 24 hours after any individual dose ([3]; range over doses): 55.4-66.0% | subjects with at least three rescue-free laxations per week [3, 5]: 67.7% | subjects with at least three rescue-free laxations per week (number) [3, 5]: 42 subjects | watery bowel movements ([3]; rescue-free laxations within 4 hours after any dose): 15.9% | subjects with at least one rescue-free laxation ([3]; second week of treatment): 91.2%

Reference: patent US20210121456A1, “USE OF METHYLNALTREXONE TO ATTENUATE TUMOR PROGRESSION” (Salix Pharmaceuticals, Inc., priority 2014, published 2021)
